Patent US9539303B2, “Treatment of Ras-expressing tumors” (Celgene Corporation, priority 2006, dated 2017)
Values joined by “and” are separate entries in the source; they are usually repeats but may differ in a detail not shown here. Equal entries are not always repeated.

Experiments:
c-Myc = assay: Tissue biomarker immunoblotting of PANC-1 xenograft tumors: c-Myc; assay type: in vivo; conditions: PANC-1 tumors at study completion; FK228 5 mg/kg Q4Dx3, gemcitabine 80 mg/kg Q3Dx4, or both; actin-normalized vs control
Description: (§1) Specimen Collection: […] Tumor xenograft tissue and serum specimens were obtained from in vivo studies performed by the Preclinical Research Laboratory at the completion of the experiments. […] Serum was obtained from whole blood and stored frozen at -70° C. Tissue Biomarkers: Tumor levels of acetylated histone-4, histone-4, […] were quantified by immunoblotting as described. Briefly, frozen tissue was pulverized under liquid nitrogen and homogenized in hypotonic lysis buffer. Small aliquots of the extracts were used for analysis of protein concentration by micro-BCA assay with bovine serum albumin as a protein standard. An equal amount of extracts containing about 20-50 μg protein was electrophoresed in SDS polyacrylamide gels. Proteins were transferred to ImmunoBlot PVDF membrane and were probed with appropriate primary and secondary antibodies. The chemiluminescence signal was captured by autoradiography, quantified by densitometry and expressed as a ratio of actin in each sample lane. For each biomarker, means and standard errors were calculated in each treatment group. […] Following quantitative analysis of biomarker levels in each sample, the results were normalized for b-actin and expressed as percentages of untreated controls. […]

acetylated histone 3 = assay: Tissue biomarker immunoblotting of PANC-1 xenograft tumors: acetylated histone 3; assay type: in vivo; conditions: PANC-1 tumors at study completion; FK228 5 mg/kg Q4Dx3, gemcitabine 80 mg/kg Q3Dx4, or both
Description: as §1

[1] = system: PANC-1 human pancreatic tumor xenograft; assay: PANC-1 human pancreatic tumor xenograft tumor growth inhibition study (Example 3); assay type: in vivo, female nude mice (nu/nu); conditions: for % TGI / Final tumor volume mean ± SEM: Day 25
Text: (§2) (Madison, Wis.). […] Tumor measurements were converted to cubic millimeter tumor volume using the formula^(5): […] TGI values for each treatment group are reported at study completion; these calculations are based on the final study day. […] Individual mice lacking palpable tumors were classified as undergoing complete regression (CR). Animals experiencing partial or complete tumor regressions were censored from TGI calculations. However, data from these animals was included in statistical analysis calculations. In addition, weight data from these animals was included in daily and final group calculations. Tumor Necrosis-Degree of tumor necrosis was rated at each tumor measurement using the following arbitrary index: […]

[2] = Animal weight and drug toxicity, PANC-1 study
Text: Model Information—Female nude mice (nu/nu) between 5 and 6 weeks of age weighing approximately 20 grams were obtained from Harlan, Inc. (Madison, Wis.). PANC-1, obtained from the ATCC, is a pancreas tumor cell line originating from a person^(1-2). BxPC-3, obtained from the American Type Culture Collection (ATCC), is a pancreas tumor cell line originating from a person^(3-4). PANC-1 Study: Animals were implanted subcutaneously (SC) by trocar with fragments of PANC-1 harvested from SC growing tumors in nude mice hosts. When tumors grew to approximately 135 cubic millimeters (mm^3) in size (17 days following implantation, animals were pair-matched by tumor size into treatment and control groups; each treatment group contained nine mice. BxPC-3 Study: Animals were implanted subcutaneously (SC) by trocar with fragments of BxPC-3 harvested from SC growing tumors in nude mice hosts. When tumors grew to approximately 85 cubic millimeters (mm^3) in size (19 days following implantation), animals were pair-matched by tumor size into treatment and control groups; each treatment group contained nine mice. Animals in both studies were ear-tagged and followed individually throughout the experiment.
Study Design and Dosing—Initial doses were administered on Day 1 following pair-matching; both experiments were carried out as tumor growth inhibition (TGI) studies. Animals were dosed intravenously (IV) via tail vein with FK228 once every four days for three treatments (Q4Dx3) or by intraperitoneal (IP) injection with gemcitabine once every three days for four treatments (Q3Dx4), either alone or in combination, at the doses listed below (Table 1). To serve as a negative control, FK228 vehicle (2% ethanol, 8% propylene glycol, 90% 0.9% saline) was injected on a Q4Dx3 schedule.
Animal Weights—Individual and group mean weights±SD and percent weight change through Day 25 (PANC-1) or Day 29 (BxPC-3) were recorded twice weekly until study completion beginning Day 1. Final group mean weights±SD and group nadir values are reported; weight data from individual animals experiencing technical or drug-related deaths was censored from final group calculations.
Moribundity/Mortality—Animals were observed twice weekly for general moribundity and daily for mortality. Animal deaths were assessed as drug-related or technical based on factors including gross observation and weight loss; reported animal death information includes type, number, and day of death for each group.

[3] = system: BxPC-3 human pancreatic tumor xenograft; assay: BxPC-3 human pancreatic tumor xenograft tumor growth inhibition study (Example 3); assay type: in vivo, female nude mice (nu/nu); conditions: for % TGI / Final tumor volume mean ± SEM: Day 29
Text: as §2

[4] = system: transformed (H, K, N-Ras and the rat Her-2/NeuT) NIH-3T3 cells; assay: 4-day proliferation assay, transformed NIH-3T3 cell lines; assay type: cell-based, mouse; conditions: 2 nM romidepsin
Description: (§3) A series of transformed NIH-3T3 cell likes were generated and a proliferation assay was performed in the presence of 2, 3, or 4 nM romidepsin. FIG. 23 illustrates the transformed morphology of the cells. FIG. 24 presents graphs of cell proliferation.

B-Raf 600E cells = assay: 4-day proliferation assay, B-Raf 600E NIH-3T3 cells; assay type: cell-based, mouse; conditions: 2, 3, or 4 nM romidepsin
Description: as §3

[5] = PANC-1 study, FK228 2.5 mg/kg IV Q4Dx3
[6] = PANC-1 study, FK228 2.5 mg/kg IV Q4Dx3, 2.5 mg/kg
[7] = PANC-1 study, FK228 5 mg/kg IV Q4Dx3
[8] = PANC-1 study, FK228 5 mg/kg IV Q4Dx3, 5 mg/kg
[9] = BxPC-3 study, FK228 2.5 mg/kg IV Q4Dx3
[10] = BxPC-3 study, FK228 2.5 mg/kg IV Q4Dx3, 2.5 mg/kg
[11] = BxPC-3 study, FK228 5 mg/kg IV Q4Dx3
[12] = BxPC-3 study, FK228 5 mg/kg IV Q4Dx3, 5 mg/kg

Structure (SMILES): C/C=C1\NC(=O)[C@H]2CSSCC/C=C/[C@H](CC(=O)N[C@H](C(C)C)C(=O)N2)OC(=O)[C@H](C(C)C)NC1=O [FK228, romidepsin]
- extent of inhibition of c-Myc expression (c-Myc): 50%
- acetylation of histone 3 (acetylated histone 3): not affected
- % TGI [1, 5]: 26%
- Final tumor volume mean ± SEM [1, 6]: 1688±290 MM^3
- % TGI [1, 7]: 26%
- Final tumor volume mean ± SEM [1, 8]: 1690±290 MM^3 and 1690 ± 331 MM^3
- Activity according to NCI standards [1, 5]: inactive
- Tumor necrosis [1, 5]: 1/9 animals reported slight tumor necrosis, 1/9 reported mild tumor necrosis, 2/9 reported moderate necrosis, and 1/9 reported severe necrosis
- #PR/CR [1, 6]: 0/9 and 0/0
- Activity according to NCI standards [1, 7]: inactive
- Tumor necrosis [1, 7]: 2/9 animals reported slight tumor necrosis, and 1/9 reported moderate necrosis
- #PR/CR [1, 8]: 0/9 and 0/0
- calculated TGI values ([1]; PANC-1 study, at the evaluated doses and schedules): less than 58%
- antitumor activity (overall conclusion) ([1]; ras-transformed PANC-1 model, all evaluated doses): some activity
- Final weight data % change ([2]; Day 25, FK228 2.5 mg/kg IV Q4Dx3): +8%
- Final weight data mean ± SD ([2]; Day 25, FK228 2.5 mg/kg IV Q4Dx3, 2.5 mg/kg): 23±2 G
- Final weight data % change ([2]; Day 25, FK228 5 mg/kg IV Q4Dx3): +9%
- Final weight data mean ± SD ([2]; Day 25, FK228 5 mg/kg IV Q4Dx3, 5 mg/kg): 25±2 G
- Weight nadir % change ([2]; FK228 2.5 mg/kg IV Q4Dx3): −9%
- Weight nadir day ([2]; FK228 2.5 mg/kg IV Q4Dx3): 11
- Drug deaths total ([2]; FK228 2.5 mg/kg IV Q4Dx3, 2.5 mg/kg): 0/9 and 0
- Weight nadir % change ([2]; FK228 5 mg/kg IV Q4Dx3): −12%
- Weight nadir day ([2]; FK228 5 mg/kg IV Q4Dx3): 11
- Drug deaths total ([2]; FK228 5 mg/kg IV Q4Dx3, 5 mg/kg): 0/9 and 0
- % TGI [3, 9]: No TGI
- Final tumor volume mean ± SEM [3, 10]: 2440±643 mm^3
- % TGI [3, 11]: No TGI
- Final tumor volume mean ± SEM [3, 12]: 2620±238 mm^3
- Activity according to NCI standards [3, 9]: inactive
- Tumor necrosis [3, 9]: 2/9 animals reported mild tumor necrosis
- #PR/CR [3, 10]: 0/9 and 0/0
- Activity according to NCI standards [3, 11]: inactive
- Tumor necrosis [3, 11]: 2/9 animals reported mild tumor necrosis
- #PR/CR [3, 12]: 0/9 and 0/0
- calculated TGI values ([3]; BxPC-3 study, at the evaluated doses and schedules): No tumor growth inhibition
- antitumor activity (overall conclusion) ([3]; wildtype ras BxPC-3, all evaluated doses): inactive
- inhibition of proliferation, transformed vs untransformed cells [4]: selectively inhibited
- potency on proliferation (B-Raf 600E cells): not potent
